Laboratory results from US9725442B2, “Heterocyclic derivative having PGD2 receptor antagonist activity” (Shionogi & Co., Ltd., priority 2011, dated 2017).
Like-named read-outs stand apart in the source and are kept apart here.

Columns and labels:
Human DP1 receptor = Human DP1 receptor (Homo sapiens (Human), UniProt Q13258); test: Human DP1 inhibitory activity in DP1-expressing cell (PGD2-induced cAMP); format: cell-based
Description: Compounds were categorized as AA (cAMP is less than 100 nM) and A (cAMP is more than 100 nM and less than 5000 nM) as shown in Table 99 and 100.

CRTH2 = CRTH2 (Homo sapiens (Human), UniProt Q9Y5Y4); test: CRTH2 receptor binding inhibitory activity ([3H]-PGD2 displacement, membranes of CRTH2-expressing K562 cell)
CRTH2, sequence (Q9Y5Y4 whole entry): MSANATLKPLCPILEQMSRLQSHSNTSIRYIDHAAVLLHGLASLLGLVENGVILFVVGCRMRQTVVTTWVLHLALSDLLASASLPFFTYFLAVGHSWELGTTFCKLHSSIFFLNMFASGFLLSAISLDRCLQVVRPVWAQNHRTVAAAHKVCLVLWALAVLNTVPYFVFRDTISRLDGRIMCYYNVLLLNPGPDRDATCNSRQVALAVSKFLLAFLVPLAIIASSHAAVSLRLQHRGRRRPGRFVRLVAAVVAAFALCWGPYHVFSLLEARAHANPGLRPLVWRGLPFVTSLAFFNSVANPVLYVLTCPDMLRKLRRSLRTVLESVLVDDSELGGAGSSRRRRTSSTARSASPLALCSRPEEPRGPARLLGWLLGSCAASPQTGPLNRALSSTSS
How it was run: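 Incubation ran 60 min at room temperature using 20 μg/well membrane from CRTH2-expressing K562 cells in pH 7.4 Tris/HCl (50 mM) with 10 mM MgCl2.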

[1] = category of cAMP IC50, human DP1 receptor expressing Jurkut cell
[2] = CRTH2 receptor binding, [3H]-PGD2 displacement, membrane of CRTH2-expressing K562 cell, categorized AAAA/AAA, read-out: Ki

Human DP1 receptor, sequence (Q13258 whole entry): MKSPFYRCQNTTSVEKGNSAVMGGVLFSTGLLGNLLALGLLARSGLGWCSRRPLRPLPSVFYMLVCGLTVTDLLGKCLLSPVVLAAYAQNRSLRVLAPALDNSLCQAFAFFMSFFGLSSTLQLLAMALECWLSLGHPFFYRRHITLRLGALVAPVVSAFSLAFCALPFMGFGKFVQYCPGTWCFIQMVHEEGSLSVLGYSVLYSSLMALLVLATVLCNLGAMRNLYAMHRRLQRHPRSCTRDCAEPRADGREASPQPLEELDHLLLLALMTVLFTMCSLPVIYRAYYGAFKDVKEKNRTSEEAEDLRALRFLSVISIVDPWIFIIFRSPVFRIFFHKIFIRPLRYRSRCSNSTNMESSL

SMILES | IC50 (Human DP1 receptor; [1]) | Ki (CRTH2; [2]) | Ki (CRTH2; [3H]-PGD2 displacement, membrane of CRTH2-expressing K562 cell, read-out: Ki) | Ki (CRTH2) | IC50 (Human DP1 receptor; IC50 of PGD2 (60 nM)-induced cAMP increase, human DP1 receptor expressing Jurkut cell)
CC(C)Oc1ccc(S(=O)(=O)N2C[C@H](n3nc(CC(=O)O)c4ccc(F)cc43)CC2c2cccnc2)cc1 (stereo partly drawn) [Compound I-345] | 100 to 5000 nM | 100 to 5000 nM | – | – | –
CCOc1ccc(S(=O)(=O)N2C[C@@H](C)[C@@H](n3nc(CC(=O)O)c4ccc(C#N)cc43)C2)cn1 [Compound I-173] | 100 to 5000 nM | < 100 nM | 11 nM | – | –
CCCCOc1ccc(S(=O)(=O)N2C[C@@H](C)[C@@H](n3nc(CC(=O)O)c4ccccc43)C2)cc1 [Compound I-151] | < 100 nM | < 100 nM | – | – | –
CC(C)Oc1ccc(S(=O)(=O)N2C[C@@H](C)[C@@H](n3nc(CC(=O)O)c4cccc(Cl)c43)C2)cc1 [Compound I-61] | 100 to 5000 nM | < 100 nM | – | – | –
CCOc1ccc(S(=O)(=O)N2C[C@H](F)[C@@H](n3nc(CC(=O)O)c4ccccc43)C2)cc1 [Compound I-313] | 100 to 5000 nM | < 100 nM | – | – | –
CC(C)Oc1ccc(S(=O)(=O)N2C[C@H](n3nc(CC(=O)O)c4ccc(F)cc43)C[C@@H]2CS(C)(=O)=O)cc1 [Compound I-355] | 100 to 5000 nM | 100 to 5000 nM | – | – | –
CCOc1ccc(S(=O)(=O)N2C[C@@H](C)[C@@H](n3nc(CC(=O)O)c4ccc(Cl)cc43)C2)cc1 [Compound I-137] | < 100 nM | < 100 nM | – | – | –
CC(C)Oc1ccc(S(=O)(=O)N2C[C@@H](C)[C@@H](n3nc(CC(=O)O)c4ccccc43)C2)cc1 [Compound I-35] | < 100 nM | < 100 nM | – | – | –
CC(C)Oc1ccc(S(=O)(=O)N2C[C@H](n3nc(CC(=O)O)c4ccc(F)cc43)C[C@@H]2c2ccccn2)cc1 [Compound I-358] | 100 to 5000 nM | 100 to 5000 nM | – | – | –
CCOc1ccc(S(=O)(=O)N2C[C@H](n3nc(CC(=O)O)c4ccccc43)[C@H](C)[C@H]2C#N)cn1 [Compound I-293] | 100 to 5000 nM | 100 to 5000 nM | – | – | –
CCOc1ccc(S(=O)(=O)N2C[C@H](n3nc(CC(=O)O)c4ccccc43)C[C@@H]2CC2COC2)cc1 [Compound I-352] | 100 to 5000 nM | 100 to 5000 nM | – | – | –
Cc1ccc2c(CC(=O)O)nn([C@H]3CN(S(=O)(=O)c4ccc(OC(C)C)nc4)C[C@H]3C)c2c1 [Compound I-229] | < 100 nM | < 100 nM | – | – | –
CC#CCOC[C@H]1C[C@@H](n2nc(CC(=O)O)c3ccc(F)cc32)CN1S(=O)(=O)c1ccc(OC(C)C)cc1 [Compound I-326] | 100 to 5000 nM | 100 to 5000 nM | – | – | –
C[C@@H]1CN(S(=O)(=O)c2ccccc2C#N)C[C@@H]1n1nc(CC(=O)O)c2ccc(F)cc21 [Compound I-124] | 100 to 5000 nM | < 100 nM | – | – | –
CC[C@@H]1CN(S(=O)(=O)c2ccc(OC(C)C)cc2)C[C@@H]1n1nc(CC(=O)O)c2ccc(F)cc21 [Compound I-39] | < 100 nM | < 100 nM | – | – | –
CC(C)Oc1ccc(S(=O)(=O)N2C[C@H](n3nc(CC(=O)O)c4ccc(F)cc43)C[C@@H]2c2ccccn2)cc1 [Compound I-351] | 100 to 5000 nM | 100 to 5000 nM | – | – | –
CCOc1ccc(S(=O)(=O)N2C[C@@H](C)[C@@H](n3nc(CC(=O)O)c4ccc(F)cc43)C2)s1 [Compound I-169] | < 100 nM | < 100 nM | – | – | –
CC(C)Oc1ccc(S(=O)(=O)N2[C@@H]3CC[C@H]2C[C@H](n2nc(CC(=O)O)c4ccc(F)cc42)C3)cc1 [Compound I-81] | 100 to 5000 nM | – | – | 100 to 5000 nM | –
CC(C)Oc1ccc(S(=O)(=O)N2C[C@H](n3nc(CC(=O)O)c4ccc(F)cc43)C[C@@H]2COc2ccc(F)cc2)cc1 [Compound I-366] | < 100 nM | 100 to 5000 nM | – | – | –
C=CCOC[C@H]1C[C@@H](n2nc(CC(=O)O)c3ccc(F)cc32)CN1S(=O)(=O)c1ccc(OC(C)C)cc1 [Compound I-323] | 100 to 5000 nM | 100 to 5000 nM | – | – | –
CC(C)Oc1ccc(S(=O)(=O)N2C[C@H](n3nc(CC(=O)O)c4ccc(F)cc43)C[C@@H]2CO)cc1 [Compound I-11] | < 100 nM | 100 to 5000 nM | – | – | 99 nM
CC(C)Oc1ccc(S(=O)(=O)N2C[C@@H](C3CC3)[C@@H](n3nc(CC(=O)O)c4ccc(F)cc43)C2)cc1 [Compound I-41] | 100 to 5000 nM | < 100 nM | – | – | –
CCc1ccc(S(=O)(=O)N2C[C@@H](C)[C@@H](n3nc(CC(=O)O)c4ccccc43)C2)cc1 [Compound I-243] | < 100 nM | 100 to 5000 nM | – | – | –
CC(C)Oc1ccc(S(=O)(=O)N2C[C@H](n3nc(CC(=O)O)c4ccc(F)cc43)C[C@@H]2COCCCO)cc1 [Compound I-342] | 100 to 5000 nM | 100 to 5000 nM | – | – | –
Cc1ccc2c(CC(=O)O)nn([C@@H]3C[C@H](C)N(S(=O)(=O)c4ccc(OC(C)C)cc4)C3)c2c1 [Compound I-94] | < 100 nM | < 100 nM | – | – | –
C[C@@H]1CN(S(=O)(=O)c2ccc(C(F)(F)F)cc2)C[C@@H]1n1nc(CC(=O)O)c2ccc(F)cc21 [Compound I-119] | 100 to 5000 nM | < 100 nM | – | – | –
